Earlier results as cited in patent US20150147378A1, “COPOLYMER-XEROGEL NANOCOMPOSITES USEFUL FOR DRUG DELIVERY” (RUTGERS, THE STATE UNIVERSITY OF NEW JERSY, priority 2008, published 2015).

CO[C@H]1/C=C/O[C@@]2(C)Oc3c(C)c(O)c4c(O)c(c(/C=N/N5CCN(C)CC5)c(O)c4c3C2=O)NC(=O)/C(C)=C\C=C\[C@H](C)[C@H](O)[C@@H](C)[C@@H](O)[C@@H](C)[C@H](OC(C)=O)[C@@H]1C [rifampicin]
octanol/water partition coefficient, log P: 2.72
